Holding throughout (format): cell-based
The test system of assay [1] is Toxoplasma gondii tachyzoites (ME49-FLUC, type 2). Nature of the assay: T. gondii ME49-FLUC tachyzoite growth inhibition in HFF, luciferase assay. Particulars: T. gondii ME49-FLUC (type 2) tachyzoites in HFF. As for the experimental part: Toxoplasma gondii tachyzoites (ME49-FLUC, type 2) (27) were serially passaged in human foreskin fibroblasts (HFF) cultured in complete DMEM medium (DMEM supplemented with 10% fetal bovine serum (FBS), glutamine (10 mM) and gentamycin (10 μg/mL)). For each assay described, infected monolayers were scraped, needle passed (23 ga), and parasites were separated from host cell debris using a three (3) micron pore polycarbonate filter. HeLa cells were cultured in MEM media that contained 10% FBS, 4 mM L-glutamine and 10 mM HEPES solution. Cell culture and assays were conducted using a 37° C. incubator with 5% CO2. Cell cultures were negative for mycoplasma, as determined using the e-Myco plus kit (Intron Biotechnology).
White, clear bottom 96-well assay plates were set up as described above with the following modifications. Only the inner 60 wells were used for the assay in order to reduce variability that results from evaporation during incubation. Dilution of compound stock is as described above, with all wells containing a final concentration of 0.1% DMSO. DMSO (vehicle control) and pyrimethamine (2.5 μM, positive control) were included in the outside wells of all plates as controls. Liquid handling (serial dilutions, compound dilutions, cell feeding, plate-to-plate transfers, etc.) utilized a Dual Pod Biomek FX. Luciferase assays were performed using the integrated and automated platform (Beckman Coulter). The SAMI EX software was used to design and execute the screening assay and enabled efficient and uniform assay execution across all the assay plates.

Assay [2] has as its system Neospora caninum parasites (NC-1 strain). Description: N. caninum (NC-1, lac-Z) growth inhibition in HFF, β-Gal assay. The note with it: N. caninum NC-1 lac-Z, 72 h, 10-point dose response 5 μM-0.01 μM, average of three biological replicates, read-out: EC50. On the procedure:
Neospora caninum parasites (NC-1 strain) expressing a lac-Z transgene (1) were serially passaged as tachyzoites in human foreskin fibroblasts cultured in DMEM supplemented with 10% fetal bovine serum (FBS), glutamine (10 mM) and gentamycin (10 μg/mL). Mature cultures were scraped, syringe passed using a 25 g needle to release parasites, filtered through a 3 micron polycarbonate filter to remove host cell debris and counted prior to each assay. All cultures were maintained in a 37° C. incubator with 5% CO2 and were verified mycoplasma free using the e-Myco plus Mycoplasma PCR detection kit (Boca Scientific).
Compounds were prepared as 10 mM stock in 100% DMSO. Pyrimethamine (positive control) and DMSO were included as controls in all plates and all replicates. The EC50 values were determined using a 10-point dose response curve using a 2-fold dilution series from 5.0 μM to 0.01 μM across the plate. Experiments were conducted in 96-well plates containing confluent HFF cells. Each assay plate was inoculated with 1×10^3 parasites (100 μL) containing 100 μL of 2× compound and incubated for 72 h prior to preparation for the j-Gal assay as described in Seeber, F. et al., Gene 169 (1996): 39-45, hereby incorporated by reference in its entirety and particularly in relation to the β-Gal assay protocol. Briefly, culture medium was replaced, wells rinsed with 200 μL of PBS followed by incubation with 50 μL of lysis buffer (100 mM HEPES, 1 mM MgSO4, 1% Triton X-100, 5 mM DTT) for 10 min at 50° C.
EC50 values determined from 10-point dose response curve (5 μM-0.01 μM) and presented as the average of three biological replicates. Linear regression and dose response inhibition (log ([compound]) vs normalized response-variable slope) were performed with Prism 8 for Mac (Graphpad Software, Inc.) and both the fits and data are shown in FIG. 1. Values represent the average of three biological replicates each with two internal replicates and are plotted as mean±S.E.M.

Assay [3] concerns Toxoplasma gondii strains expressing FLUC. Description: microbe, parasite or virus in culture. As for the experimental part:
The ability of bicyclic azetidines to inhibit different strains of T. gondii was tested using a series of firefly luciferase (FLUC)-tagged lines. […] A similar strategy was utilized to derive FLUC expressing lines from additional T. gondii strains MAS (type 4) and FOU (type 6).

Like-named read-outs stand apart in the source and are kept apart here.

Broadly, the EC50 is the midpoint of the concentration-response curve.

`COc1ccc(NC(=O)N2CCCCN3[C@H](CN(C)C)[C@H](c4ccc(C#Cc5ccccc5)cc4)[C@@H]3C2)cc1` [Compound 15, (8R,9S,10S)-10-((dimethylamino)methyl)-N-(4-methoxyphenyl)-9-(4-(phenylethynyl)phenyl)-1,6-diazabicyclo[6.2.0]decane-6-carboxamide]: the EC50 in assay [1] came out at 22.6 nM; in assay [2], 250 nM; in assay [3] (genotype 4, read-out: Average EC50 ± S.D.) it was 41.9 nM; in assay [3] (genotype 5, read-out: Average EC50 ± S.D.) it was 26.9 nM; in assay [3] (genotype 6, read-out: Average EC50 ± S.D.), 45.1 nM; in assay [3] (strain ME49, genotype 2, three or more independent titrations, read-out: Average EC50 ± S.D.), 49.4 nM. In addition, in assay [3] (strain VAND, genotype 10, three or more independent titrations, read-out: Average EC50 ± S.D.), the EC50 turned out to be 27.9 nM.

For the origin of these results see patent publication US12600727B2, “Treatment of infections of toxoplasma gondii and closely related parasites” (WASHINGTON UNIVERSITY, priority 2018, dated 2026).
